# Measured values published in patent US9232796B2, “Herbicidal compositions comprising 4-amino-3-chloro-5-fluoro-6-(4-chloro-2-fluoro-3-methoxyphenyl) pyridine-2-carboxylic acid or a derivative thereof and acetyl-CoA carboxylase (ACCase) inhibitors” (DOW AGROSCIENCES LLC, priority 2012, dated 2016).
# Experiments:
# ECHOR [1] = assay: Example V (second) postemergence foliar-applied ternary mixtures, greenhouse, direct seeded rice weeds; format: in vivo, Echinochloa oryzoides (Ard.) Fritsch
# Description: Seeds or nutlets of the desired test plant species were planted in a soil matrix prepared by mixing a sandy loam or loam soil (e.g., 32 percent silt, 23 percent clay, and 45 percent sand, with a pH of about 6.5 and an organic matter content of about 1.9 percent) and calcareous grit in an 80 to 20 ratio. The soil matrix was contained in plastic pots with a volume of 1 quart and a surface area of 83.6 square centimeters (cm^2). […] The plants were grown for 8-22 days in a greenhouse with an approximate 14 hr. photoperiod which was maintained at about 29° C. during the day and 26° C. during the night. Nutrients (Peters Excel® 15-5-15 5-Ca 2-Mg and iron chelate) were applied in the irrigation solution as needed and water was added on a regular basis. Supplemental lighting was provided with overhead metal halide 1000-Watt lamps as necessary. The plants were employed for testing when they reached the first through fourth true leaf stage.
# (§1) Treatments consisted of the benzyl ester of 4-amino-3-chloro-5-fluoro-6-(4-chloro-2-fluoro-3-methoxy-phenyl)pyridine-2-carboxylic acid (Compound A), formulated as an SC (suspension concentrate), an ACCase inhibitor, and a third herbicidal component, each applied alone and in ternary combination. Forms of compound A were applied on an acid equivalent basis.
# (§2) For treatments comprised of formulated compounds, measured amounts of compounds were placed individually in 25 mL glass vials and diluted in a volume of 1.25% (v/v) Agri-Dex® crop oil concentrate to obtain 12× stock solutions. […] Application solutions were prepared by adding an appropriate amount of each stock solution (e.g., 1 mL) and diluted to the appropriate final concentrations with the addition of 9 mL of an aqueous mixture of 1.25% (v/v) crop oil concentrate so that the final spray solutions contained 1.25% (v/v) crop oil concentrate.
# (§3) As required, additional water and/or 97:3 v/v acetone/DMSO was added to individual application solutions so that the final acetone and DMSO concentrations of the application solutions being compared were 8.1% and 0.25%, respectively.
# (§4) All stock solutions and applications solutions were visually inspected for compound compatibility prior to application. Spray solutions were applied to the plant material with an overhead Mandel track sprayer equipped with a 8002E nozzles calibrated to deliver 187 L/ha over an application area of 0.503 m^2 at a spray height of 18 inches (46 cm) above average plant canopy height. Control plants were sprayed in the same manner with the solvent blank.
# (§5) The treated plants and control plants were placed in a greenhouse as described above and watered by sub-irrigation to prevent wash-off of the test compounds. After approximately 3 weeks, the condition of the test plants as compared with that of the untreated plants was determined visually and scored on a scale of 0 to 100 percent where 0 corresponds to no injury or growth inhibition and 100 corresponds to complete kill.
# (§6) Colby's equation was used to determine the herbicidal effects expected from the mixtures (Colby, S. R. 1967. Calculation of the synergistic and antagonistic response of herbicide combinations. Weeds 15:20-22.).
# The following equation was used to calculate the expected activity of mixtures containing three active ingredients, A, B, and C: Expected=A+B+C−((A×B+A×C+B×C)/100)+(A×B×C/10000)
# ECHCG = assay: as above; format: in vivo, Echinochloa crus-galli (L.) Beauv.
# Excerpt: Seeds or nutlets of the desired test plant species were planted in a soil matrix prepared by mixing a sandy loam or loam soil (e.g., 32 percent silt, 23 percent clay, and 45 percent sand, with a pH of about 6.5 and an organic matter content of about 1.9 percent) and calcareous grit in an 80 to 20 ratio. The soil matrix was contained in plastic pots with a volume of 1 quart and a surface area of 83.6 square centimeters (cm^2). When required to ensure good germination and healthy plants, a fungicide treatment and/or other chemical or physical treatment was applied. The plants were grown for 8-22 days in a greenhouse with an approximate 14 hr. photoperiod which was maintained at about 29° C. during the day and 26° C. during the night. Nutrients (Peters Excel® 15-5-15 5-Ca 2-Mg and iron chelate) were applied in the irrigation solution as needed and water was added on a regular basis. Supplemental lighting was provided with overhead metal halide 1000-Watt lamps as necessary. The plants were employed for testing when they reached the first through fourth true leaf stage.
# as §1
# The ACCase inhibitor component was applied on an active ingredient basis and included cyhalofop-R-butyl formulated as Clincher® SF, fenoxaprop-p-ethyl formulated as RiceStar® HT, and profoxydim formulated as Aura® 20EC. Other herbicidal components were applied on an active ingredient or acid equivalent basis depending on the compound and included penoxsulam formulated as Grasp® SC, bentazon sodium formulated as Basagran®, triclopyr […] (TEA) salt formulated as Grandstand® R, bispyribac sodium formulated as Regiment® 80WP, imazamox ammonium formulated as Beyond®, benzobicyclon, quinclorac formulated as Facet® 75DF, glyphosate dimethylammonium (DMA) salt formulated as Durango® DMA, glufosinate ammonium formulated as Ignite® 280, fentrazamide formulated as an emulsifiable concentrate (EC), propyrisulfuron formulated as Zeta One®, and indanofan (technical grade material).
# (§7) Treatment requirements were calculated based upon the rates being tested, the concentration of active ingredient or acid equivalent in the formulation, and a 12 mL application volume at a rate of 187 L/ha.
# as §2, §3, §4
# The treated plants and control plants were placed in a greenhouse as described above and watered by sub-irrigation to prevent wash-off of the test compounds. […]
# IPOHE = assay: Example I postemergence foliar-applied, greenhouse, direct seeded rice weeds; format: in vivo, Ipomoea hederacea Jacq.
# Excerpt: Seeds or nutlets of the desired test plant species were planted in a soil matrix prepared by mixing a loam or sandy loam soil (e.g., 28.6 percent silt, 18.8 percent clay, and 52.6 percent sand, with a pH of about 5.8 and an organic matter content of about 1.8 percent) and calcareous grit in an 80 to 20 ratio. The soil matrix was contained in plastic pots with a volume of 1 quart and a surface area of 83.6 square centimeters (cm^2). When required to ensure good germination and healthy plants, a fungicide treatment and/or other chemical or physical treatment was applied. The plants were grown for 8-22 days in a greenhouse with an approximate 14 hr. photoperiod which was maintained at about 29° C. during the day and 26° C. during the night. Nutrients (Peters Excel® 15-5-15 5-Ca 2-Mg and iron chelate) were applied in the irrigation solution as needed and water was added on a regular basis. Supplemental lighting was provided with overhead metal halide 1000-Watt lamps as necessary. The plants were employed for testing when they reached the first through fourth true leaf stage.
# Treatments consisted of the acid or esters of 4-amino-3-chloro-5-fluoro-6-(4-chloro-2-fluoro-3-methoxy-phenyl)pyridine-2-carboxylic acid (Compound A), each formulated as an SC (suspension concentrate), and various herbicidal components alone and in combination.
# Other herbicidal components were applied on an acid equivalent (ae) or active ingredient (ai) basis and included acetyl coA carboxylase (ACCase)-inhibiting herbicides (cyclohexanedione and aryloxyphenoxypropionate chemical classes) cyhalofop-butyl formulated as Clincher® SF (285 gr ai/L EC), diclofop-methyl formulated as Hoelon® 3EC, fenoxaprop-p-ethyl+isoxadifen-ethyl formulated as RiceStar® HT (0.58 lb./gal EC), fenoxaprop-p-ethyl+mefenpyr diethyl formulated as Puma® IEC, metamifop formulated as Metamifop EC, haloxyfop-methyl formulated as Gallant Super®, fluazifop-p-butyl formulated as Fusilade® DX, quizalofop-p-ethyl formulated as Assure® II, profoxydim formulated as Aura® 20EC, clethodim applied as Intensity®, sethoxydim formulated as Poast®, and tralkoxydim formulated as Achieve®.
# as §7
# as §2, with “crop oil concentrated to obtain” for “crop oil concentrate to obtain”, “addition of 10 mL of” for “addition of 9 mL of”, “solutions contained 1.25+/−0.05% (v/v) crop” for “solutions contained 1.25% (v/v) crop”
# All stock solutions and applications solutions were visually inspected for compound compatibility prior to application. Spray solutions were applied to the plant material with an overhead Mandel track sprayer equipped with a 8002E nozzles calibrated to deliver 187 L/ha over an application area of 0.503 m^2 at a spray height of 18 to 20 inches (46 to 50 cm) above average plant canopy height. Control plants were sprayed in the same manner with the solvent blank.
# as §5, with “kill. […]” for “kill.”
# ECHOR [2] = assay: Example II in-water applied, greenhouse, transplanted paddy rice weeds; format: in vivo, Echinochloa oryzoides (Ard.) Fritsch; settings: in-water
# Description: (§8) Weed seeds or nutlets of the desired test plant species were planted in puddled soil (mud) prepared by mixing a shredded, non-sterilized mineral soil (50.5 percent silt, 25.5 percent clay, and 24 percent sand, with a pH of about 7.6 and an organic matter content of about 2.9 percent) and water at a 1:1 volumetric ratio. The prepared mud was dispensed in 365 mL aliquots into 16-ounce (oz.) non-perforated plastic pots with a surface area of 86.59 square centimeters (cm^2) leaving a headspace of 3 centimeters (cm) in each pot. Mud was allowed to dry overnight prior to planting or transplanting. Rice seeds were planted in Sun Gro MetroMix® 306 planting mixture, which typically has a pH of 6.0 to 6.8 and an organic matter content of about 30 percent, in plastic plug trays. Seedlings at the second or third leaf stage of growth were transplanted into 860 mL of mud contained in 32-oz. non-perforated plastic pots with a surface area of 86.59 cm^2 4 days prior to herbicide application. The paddy was created by filling the headspace of the pots with 2.5 to 3 cm of water. […] The plants were grown for 4-22 days in a greenhouse with an approximate 14 hr. photoperiod which was maintained at about 29° C. during the day and 26° C. during the night. Nutrients were added as Osmocote® (19:6:12, N:P:K+minor nutrients) at 2 g per 16-oz. pot and 4 g per 32-oz. pot. Water was added on a regular basis to maintain the paddy flood, and supplemental lighting was provided with overhead metal halide 1000-Watt lamps as necessary. The plants were employed for testing when they reached the first through fourth true leaf stage.
# (§9) Treatments consisted of the acid or esters of 4-amino-3-chloro-5-fluoro-6-(4-chloro-2-fluoro-3-methoxy-phenyl)pyridine-2-carboxylic acid (compound A) each formulated as an SC (suspension concentrate) and various herbicidal components alone and in combination.
# (§10) For formulated compounds, a measured amount was placed in an individual 100 or 200 mL glass vial and was dissolved in a volume of 1.25% (v/v) Agri-Dex® crop oil concentrate to obtain application solutions.
# (§11) Applications were made by injecting with a pipetter appropriate amounts of the application solutions, individually and sequentially, into the aqueous layer of the paddy. Control plants were treated in the same manner with the solvent blank. Applications were made so that all treated plant material received the same concentrations of acetone and crop oil concentrate.
# as §5, with “water was added as needed” for “watered by sub-irrigation”, “maintain a paddy flood.” for “prevent wash-off of the test compounds.”, “weeks” for “weeks,”
# as §6
# (§12) The following equation was used to calculate the expected activity of mixtures containing two active ingredients, A and B: Expected=A+B−(A×B/100)
# CYPRO = assay: as above; format: in vivo, Cyperus rotundus L.
# Description: as §8, §9, §10, §11
# as §5, with “water was added as needed” for “watered by sub-irrigation”, “maintain a paddy flood.” for “prevent wash-off of the test compounds.”, “weeks” for “weeks,”
# as §6, §12
smiles,measurement,setting,value
CCN(C(=O)n1nnn(-c2ccccc2Cl)c1=O)C1CCCCC1 [Fentrazamide],Visual Weed Control (%)- 22 DAA ECHOR Obs,ECHOR [1]; 33.75 gai/ha,3%
same,Visual Weed Control (%)- 22 DAA ECHOR Obs,ECHOR [1]; 67.5 gai/ha,0%
same,Visual Weed Control (%) - 22 DAA ECHCG Obs,ECHCG; 33.75 gai/ha,0%
same,Visual Weed Control (%) - 22 DAA ECHCG Obs,ECHCG; 67.5 gai/ha,0%
"CCCCOC(=O)[C@@H](C)Oc1ccc(Oc2ccc(C(F)(F)F)cn2)cc1 [Fluazifop-p-butyl, butyl(2R)-2-[4-[[5-(trifluoromethyl)-2-pyridinyl]oxy]phenoxy]propanoate, reference compound]",Visual Weed Control (%) - 19 DAA IPOHE Obs,IPOHE; 45 gae/ha,0%
same,Visual Weed Control (%) - 19 DAA IPOHE Obs,IPOHE; 90 gae/ha,0%
same,Visual Weed Control (%) - 19 DAA IPOHE Obs,IPOHE; 180 gae/ha,0%
same,Visual Weed Control (%) - 21 DAA ECHOR Obs,ECHOR [2]; 45 gai/ha,0%
same,Visual Weed Control (%) - 21 DAA ECHOR Obs,ECHOR [2]; Fluazifop-P-butyl 90 gae/ha,25%
same,Visual Weed Control (%) - 21 DAA CYPRO Obs,CYPRO; Fluazifop-P-butyl 90 gae/ha,0%
same,Visual Weed Control (%) - 21 DAA CYPRO Obs,CYPRO; Fluazifop-P-butyl 180 gae/ha,0%
CCCc1ccc2nc(Cl)c(S(=O)(=O)NC(=O)Nc3nc(OC)cc(OC)n3)n2n1 [Propyrisulfuron],Visual Weed Control (%) - 22 DAA ECHOR Obs,ECHOR [1]; 22.5 gai/ha,55%
